ChEMBL document CHEMBL2010683, “Discovery of the first small molecule inhibitor of human DDX3 specifically designed to target the RNA binding site: towards the next generation HIV-1 inhibitors” (Bioorg Med Chem Lett, 2012)

Experiments:
[1] = Inhibition of Hepatitis C virus NS3 helicase expressed in Escherichia coli assessed as conversion of a 6-FAM-labeled double stranded RNA in to single stranded nucleic acid by laser scanning densitometric analysis; set-up: species or system Hepacivirus hominis
[2] = molecular target: T1, ATP-dependent RNA helicase DDX1 (Homo sapiens, UniProt Q92499); assay: Inhibition of human recombinant DDX1 helicase activity expressed in Escherichia coli assessed as conversion of a 6-FAM-labeled double stranded RNA in to single stranded nucleic acid by laser scanning densitometric analysis
T1 sequence (Q92499 whole entry): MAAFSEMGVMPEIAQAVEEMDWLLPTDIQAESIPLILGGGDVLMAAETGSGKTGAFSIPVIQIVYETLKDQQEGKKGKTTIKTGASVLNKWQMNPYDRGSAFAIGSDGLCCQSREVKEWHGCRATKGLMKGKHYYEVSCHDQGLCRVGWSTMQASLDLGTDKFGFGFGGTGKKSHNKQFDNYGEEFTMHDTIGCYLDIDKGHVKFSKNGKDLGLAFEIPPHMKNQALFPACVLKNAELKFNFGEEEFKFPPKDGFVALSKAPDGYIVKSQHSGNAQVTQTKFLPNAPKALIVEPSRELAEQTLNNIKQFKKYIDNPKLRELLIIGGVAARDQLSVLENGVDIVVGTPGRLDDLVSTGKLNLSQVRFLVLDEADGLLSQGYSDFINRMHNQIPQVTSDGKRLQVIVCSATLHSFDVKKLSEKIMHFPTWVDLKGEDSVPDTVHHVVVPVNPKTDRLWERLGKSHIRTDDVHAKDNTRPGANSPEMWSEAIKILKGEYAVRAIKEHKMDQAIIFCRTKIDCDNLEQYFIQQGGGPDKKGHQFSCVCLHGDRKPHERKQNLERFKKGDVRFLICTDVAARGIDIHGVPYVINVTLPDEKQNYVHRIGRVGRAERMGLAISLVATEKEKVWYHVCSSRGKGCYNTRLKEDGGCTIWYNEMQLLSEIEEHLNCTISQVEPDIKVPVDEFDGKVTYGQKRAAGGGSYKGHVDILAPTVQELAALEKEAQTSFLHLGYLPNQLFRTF

[3] = molecular target: T2, ATP-dependent RNA helicase DDX3X (Homo sapiens, UniProt O00571); assay: Inhibition of human recombinant DDX3 ATPase activity expressed in Escherichia coli assessed as [gamma-32P] ATP hydrolysis after 5 mins by densitometric analysis
Target sequence in this assay (O00571 whole entry): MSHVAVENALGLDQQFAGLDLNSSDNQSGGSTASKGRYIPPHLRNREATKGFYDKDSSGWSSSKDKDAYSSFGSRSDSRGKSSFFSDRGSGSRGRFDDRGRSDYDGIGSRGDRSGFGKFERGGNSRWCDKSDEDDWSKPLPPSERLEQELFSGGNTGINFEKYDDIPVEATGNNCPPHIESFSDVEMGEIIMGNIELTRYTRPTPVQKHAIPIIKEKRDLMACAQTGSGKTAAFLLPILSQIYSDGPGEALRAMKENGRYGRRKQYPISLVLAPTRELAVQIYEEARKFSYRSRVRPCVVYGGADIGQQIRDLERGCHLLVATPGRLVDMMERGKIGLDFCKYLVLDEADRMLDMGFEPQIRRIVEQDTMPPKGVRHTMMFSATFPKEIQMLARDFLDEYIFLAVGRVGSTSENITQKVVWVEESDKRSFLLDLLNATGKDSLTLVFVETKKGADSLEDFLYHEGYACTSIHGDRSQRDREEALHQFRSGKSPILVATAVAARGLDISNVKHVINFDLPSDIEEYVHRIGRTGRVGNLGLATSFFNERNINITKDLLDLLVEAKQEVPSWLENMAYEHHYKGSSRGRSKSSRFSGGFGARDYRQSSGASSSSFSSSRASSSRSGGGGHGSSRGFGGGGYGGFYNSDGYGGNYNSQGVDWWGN

[4] = molecular target: T2, ATP-dependent RNA helicase DDX3X; assay: Inhibition of human recombinant DDX3 helicase activity expressed in Escherichia coli assessed as conversion of a 6-FAM-labeled double stranded RNA in to single stranded nucleic acid by laser scanning densitometric analysis
Target sequence in this assay (O00571 whole entry): as above

[5] = Cytotoxicity against human PBMC cells assessed as cell viability after 72 hrs by MTS assay; assay type: cell-based
[6] = Selectivity ratio of CC50 for human PBMC cells to EC50 for multidrug-resistant HIV1 infected in phytohemagglutininin-P-stimulated human PBMC cells; assay type: ADME, cell-based; settings: read-out: Ratio CC50/EC50
[7] = tested on: Human immunodeficiency virus 1; assay: Antiviral activity against multidrug-resistant HIV1 infected in phytohemagglutininin-P stimulated human PBMC cells assessed as inhibition of viral replication after 72 hrs post infection; assay type: functional, organism-based; settings: Human immunodeficiency virus 1, PBMC
[8] = molecular target: T2, ATP-dependent RNA helicase DDX3X
Target sequence in this assay (O00571 2-662 limits assumed): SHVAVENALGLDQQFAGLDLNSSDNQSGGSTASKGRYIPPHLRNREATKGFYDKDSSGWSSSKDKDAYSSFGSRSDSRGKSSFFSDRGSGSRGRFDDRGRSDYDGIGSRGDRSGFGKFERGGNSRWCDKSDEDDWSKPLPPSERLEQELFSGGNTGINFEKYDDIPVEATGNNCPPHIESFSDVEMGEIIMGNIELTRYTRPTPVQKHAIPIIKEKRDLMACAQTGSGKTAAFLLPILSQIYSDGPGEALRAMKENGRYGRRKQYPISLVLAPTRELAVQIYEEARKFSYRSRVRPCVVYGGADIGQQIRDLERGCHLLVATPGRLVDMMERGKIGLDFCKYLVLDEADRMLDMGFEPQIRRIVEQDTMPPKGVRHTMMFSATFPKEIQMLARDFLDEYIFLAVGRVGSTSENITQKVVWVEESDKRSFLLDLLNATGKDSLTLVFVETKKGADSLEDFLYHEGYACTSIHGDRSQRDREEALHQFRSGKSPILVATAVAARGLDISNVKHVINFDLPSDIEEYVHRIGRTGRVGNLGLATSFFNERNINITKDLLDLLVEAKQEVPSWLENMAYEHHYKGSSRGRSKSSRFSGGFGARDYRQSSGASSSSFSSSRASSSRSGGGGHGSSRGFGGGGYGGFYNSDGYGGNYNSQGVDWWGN
Description: Competitive inhibition of human recombinant DDX3 expressed in Escherichia coli using 100 nM double strand 18/36mer RNA substrate by PAGE analysis

[9] = molecular target: T2, ATP-dependent RNA helicase DDX3X; remark: listed apart in the source
Target sequence in this assay (O00571 2-662 limits assumed): as above
Description: Competitive inhibition of human recombinant DDX3 expressed in Escherichia coli using 25 nM double strand 18/36mer RNA substrate by PAGE analysis

[10] = molecular target: T2, ATP-dependent RNA helicase DDX3X; remark: listed apart in the source
Target sequence in this assay (O00571 2-662 limits assumed): as above
Description: Competitive inhibition of human recombinant DDX3 expressed in Escherichia coli using 50 nM double strand 18/36mer RNA substrate by PAGE analysis

Cc1[nH]c2ccccc2c1C1=CC(c2ccccc2)=NN=C(c2ccccc2)C1
IC50 [1]: > 500 µM
IC50 [2]: > 500 µM
IC50 [3]: > 1000 µM
IC50 [4]: 6 µM

O=C(Nc1cccc([N+](=O)[O-])c1)Nc1cccc([N+](=O)[O-])c1
IC50 [1]: > 500 µM
IC50 [2]: > 500 µM
IC50 [3]: > 1000 µM

O=C(Nc1ccc(-c2nc3ccccc3[nH]2)cc1)c1cc2ccccc2o1
IC50 [1]: > 500 µM
IC50 [2]: > 500 µM
IC50 [3]: > 1000 µM
IC50 [4]: 42 µM

Cc1ccccc1NC(=O)Nc1cccc(NC(=O)Nc2ccccc2C)c1
IC50 [1]: > 500 µM
IC50 [2]: > 500 µM
IC50 [3]: 17 µM
IC50 [4]: 65 µM

Nc1cccc(NC(=O)Nc2cccc(N)c2)c1
IC50 [1]: > 500 µM
IC50 [2]: > 500 µM
IC50 [3]: > 1000 µM

Cc1ccccc1NC(=O)Nc1cccc([N+](=O)[O-])c1
CC50 at 72 h [5]: 100 µM
selectivity ratio [6]: 10
EC50 [7]: 10 µM
IC50 [1]: > 500 µM
IC50 [2]: > 500 µM
IC50 [3]: 20 µM

Cc1ccccc1NC(=O)Nc1cccc(N)c1
CC50 at 72 h [5]: 100 µM
ID50 [8]: 950 µM
ID50 [9]: 4.5 µM
selectivity ratio [6]: 10
EC50 [7]: 15 µM
IC50 [1]: > 500 µM
ID50 [10]: 435 µM
IC50 [2]: > 500 µM
IC50 [3]: 40 µM
IC50 [4]: 5 µM
